These results are taken from US20250243190A1, “NEW DEUTERATED RORGAMMA/RORGAMMAT INVERSE AGONISTS” (IMMUNIC AG, priority 2022, published 2025).

This assay has as its target T1, RORγt (Homo sapiens, UniProt P51449).
T1 sequence (P51449 269-508 limits assumed): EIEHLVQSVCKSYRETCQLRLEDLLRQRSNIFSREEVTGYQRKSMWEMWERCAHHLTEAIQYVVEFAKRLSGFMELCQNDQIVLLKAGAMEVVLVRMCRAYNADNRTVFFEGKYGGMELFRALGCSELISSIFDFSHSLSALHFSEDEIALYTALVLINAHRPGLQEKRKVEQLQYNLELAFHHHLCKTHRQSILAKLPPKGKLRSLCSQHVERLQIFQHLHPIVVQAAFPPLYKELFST
Kind of assay: Indigo Biosciences Human RAR-related Orphan Receptor, Gamma Reporter Assay (in vitro inhibition of RORγt). It counts as cell-based. To be noted: RORγt reporter cells, luciferase readout, 22-24 h incubation; read-out: IC50 range. The method, then:
The in vitro inhibition of RORγt was measured using Indigo Biosciences Human RAR-related Orphan Receptor, Gamma Reporter Assay System (Product #IB304001-32) as described in the technical manual. In brief, 200 μL of Reporter Cells is dispensed into wells of the assay plate and preincubated for 4-6 h. Following the pre-incubation period, culture media are discarded and 200 µL/well of the prepared 1×-concentration treatment media are added. Following 22-24 h incubation, treatment media are discarded and Luciferase Detection Reagent is added. The intensity of light emission (in units of ‘Relative Light Units’; RLU) from each assay well is quantified using a plate-reading luminometer. Average values of RLU were determined for each treatment concentration. Non-linear regression analyses were performed and IC50 values determined using GraphPad Prism software. Provided inverse-agonists ursolic acid served as positive control.
In general terms: In a reporter assay the amount or activity of a reporter protein is the signal.
By IC50 is commonly meant the concentration at which inhibition is half-maximal. As to `[2H][C@]1(n2ncc(-c3onc(-c4c(F)cccc4Cl)c3-c3ncccn3)c2C(F)(F)F)C[C@@](C)(O)C1` [Example 2-2, (1s,3s)-3-(4-(3-(2-chloro-6-fluorophenyl)-4-(pyrimidin-2-yl)isoxazol-5-yl)-5-(trifluoromethyl)-1H-pyrazol-1-yl)-1-methylcyclobutan-3-d-1-ol], the 50% inhibitory concentration (IC50) lay in the range of 0.01 to 0.1 µM.

In the case of `[2H]c1c([2H])c(F)c(-c2noc(-c3cnn(C([2H])([2H])CC(C)(C)O)c3C(F)(F)F)c2-c2ncccn2)c(Cl)c1[2H]` [5/2], the 50% inhibitory concentration (IC50) was less than 0.01 µM.

Take `[2H][C@]1(n2ncc(-c3onc(-c4c(F)cccc4Cl)c3-c3ncccn3)c2C(F)F)C[C@](C)(O)C1` [Example 4-1/1]: the half-maximal inhibitory concentration (IC50) was 0.1 to 1 µM.

Consider `[2H]c1nc(-c2c(-c3c(F)cccc3Cl)noc2-c2cnn(C([2H])([2H])CC(C)(C)O)c2C(F)(F)F)nc([2H])c1[2H]` [Example 3-3], for which the half-inhibitory concentration (IC50) lay within 0.01 to 0.1 µM.

As for `[2H]c1c([2H])c(F)c(-c2noc(-c3cnn(-c4cccc(Cl)c4)c3C(F)(F)F)c2C(=O)OC)c(Cl)c1[2H]` [Example 104, Methyl 3-(2-chloro-6-fluorophenyl-3,4,5-d3)-5-(1-(3-chlorophenyl)-5-(trifluoro-methyl)-1H-pyrazol-4-yl)isoxazole-4-carboxylate], the IC50 lay within 0.01 to 0.1 µM.

For `[2H]c1cc([2H])c(-n2ncc(-c3onc(-c4c(F)cccc4Cl)c3C(=O)OC)c2C(F)(F)F)c([2H])c1Cl` [Example 105, Methyl 3-(2-chloro-6-fluorophenyl)-5-(1-(3-chlorophenyl-2,4,6-d3)-5-(trifluoro-methyl)-1H-pyrazol-4-yl)isoxazole-4-carboxylate], the IC50 is less than 0.01 µM.

As for `[2H]c1cc([2H])c(-n2ncc(-c3onc(-c4c(F)cccc4Cl)c3-c3nccs3)c2C(F)(F)F)c([2H])c1Cl` [Example 106, 3-(2-Chloro-6-fluorophenyl)-5-(1-(3-chlorophenyl-2,4,6-d3)-5-(trifluoromethyl)-1H-pyrazol-4-yl)-4-(thiazol-2-yl)isoxazole], the 50% inhibitory concentration (IC50) is less than 0.01 µM.

As to `[2H]C([2H])(OC(C)C)c1c(-c2c(F)cccc2Cl)noc1-c1cnn(-c2cc(F)cc(Cl)c2)c1C(F)(F)F` [111/4], the half-inhibitory concentration (IC50) lay in the range of 0.01 to 0.1 µM.

With `[2H][C@]1(n2ncc(-c3onc(-c4ccccc4Cl)c3-c3ncccn3)c2C(F)(F)F)C[C@](C)(O)C1` [Example 2-1/1], the IC50 is 0.1 to 1 µM.

Take `[2H]c1nc(-c2c(-c3c(F)cccc3Cl)noc2-c2cnn(-c3cccc(Cl)c3)c2C(F)(F)F)nc([2H])c1[2H]` [Example 103, 3-(2-Chloro-6-fluorophenyl)-5-(1-(3-chlorophenyl)-5-(trifluoromethyl)-1H-pyrazol-4-yl)-4-(pyrimidin-2-yl-d3)isoxazole]: the half-maximal inhibitory concentration (IC50) lay in the range of 0.01 to 0.1 µM.

Consider `[2H]c1nc(-c2c(-c3c(F)cccc3Cl)noc2-c2cnn(C([2H])([2H])CC(C)(C)O)c2C(F)(F)F)sc1[2H]` [Example 3-2], for which the IC50 is less than 0.01 µM.

With `[2H][C@]1(n2ncc(-c3onc(-c4c(F)cccc4Cl)c3-c3ncccn3)c2C(F)F)C[C@@](C)(O)C1` [4-2/1], the IC50 is 0.01 to 0.1 µM.

Turning to `[2H][C@]1(n2ncc(-c3onc(-c4c(F)cccc4Cl)c3-c3ncccn3)c2C(F)(F)F)C[C@](C)(O)C1` [Example 2-1, (1r,3r)-3-(4-(3-(2-Chloro-6-fluorophenyl)-4-(pyrimidin-2-yl)isoxazol-5-yl)-5-(trifluoro-methyl)-1H-pyrazol-1-yl)-1-methylcyclobutan-3-d-1-ol], the 50% inhibitory concentration (IC50) fell in the range of 0.1 to 1 µM.

For the molecule `[2H]C([2H])(OC(F)(F)F)c1c(-c2c(F)cccc2Cl)noc1-c1cnn(-c2cccc(Cl)c2)c1C(F)(F)F` [Example 109, 3-(2-Chloro-6-fluorophenyl)-5-(1-(3-chlorophenyl)-5-(trifluoromethyl)-1H-pyrazol-4-yl)-4-((trifluoromethoxy)methyl-d2)isoxazole], the half-inhibitory concentration (IC50) lay in the range of 0.01 to 0.1 µM.

On to `[2H]C([2H])(OC(C)C)c1c(-c2c(F)cc(F)cc2Cl)noc1-c1cnn(-c2cccc(Cl)c2)c1C(F)(F)F` [111/2], for which the IC50 was 0.1 to 1 µM.

As for `[2H][C@]1(n2ncc(-c3onc(-c4ccccc4Cl)c3-c3ncccn3)c2C(F)(F)F)C[C@@](C)(O)C1` [2-2/1], the concentration for half-maximal inhibition (IC50) lay in the range of 0.01 to 0.1 µM.
